Marks after values point to notes of the source that are not given here.
Legend:
[1] = test system: human colon adenocarcinoma clone 2 (Caco‐2); test: Caco‐2 apparent permeability; type: in vitro ADME; conditions: Caco‐2 cell line
BCRP = test: MDCK‐BCRP apparent permeability; type: in vitro ADME, canine; conditions: dog
[2] = test system: Madin Darby canine kidney–breast cancer resistance protein (BCRP) cell lines; test: MDCK‐BCRP apparent permeability; type: in vitro ADME; conditions: MDCK‐BCRP cell line
CYP1A2 [3] = target: T1, CYP1A2 (Homo sapiens, UniProt P05177); test: Metabolic stability in recombinant human CYP1A2 with NADPH; type: in vitro ADME; conditions: CYP1A2 share of CYP metabolism, scaled by abundance and ISEF
T1 sequence (P05177 1-516): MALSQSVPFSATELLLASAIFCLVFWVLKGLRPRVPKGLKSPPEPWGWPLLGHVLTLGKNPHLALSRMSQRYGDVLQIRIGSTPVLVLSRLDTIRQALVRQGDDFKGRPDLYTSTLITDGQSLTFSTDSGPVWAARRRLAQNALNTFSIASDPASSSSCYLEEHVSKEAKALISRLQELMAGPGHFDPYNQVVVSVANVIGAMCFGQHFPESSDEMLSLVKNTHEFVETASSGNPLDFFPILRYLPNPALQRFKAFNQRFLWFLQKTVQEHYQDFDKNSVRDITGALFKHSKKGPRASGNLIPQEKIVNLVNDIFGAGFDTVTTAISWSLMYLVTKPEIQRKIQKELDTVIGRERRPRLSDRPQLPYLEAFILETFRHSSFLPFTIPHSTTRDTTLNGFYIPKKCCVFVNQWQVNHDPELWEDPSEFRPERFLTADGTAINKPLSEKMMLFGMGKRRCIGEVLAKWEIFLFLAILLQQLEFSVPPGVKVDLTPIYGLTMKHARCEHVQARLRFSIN

recombinant human CYP2A6 = target: T2, recombinant human CYP2A6 (Homo sapiens, UniProt P11509); test: Metabolic stability in recombinant human CYP2A6 with NADPH; type: in vitro ADME; conditions: CYP2A6 share of CYP metabolism, scaled by abundance and ISEF
T2 sequence (P11509 1-494): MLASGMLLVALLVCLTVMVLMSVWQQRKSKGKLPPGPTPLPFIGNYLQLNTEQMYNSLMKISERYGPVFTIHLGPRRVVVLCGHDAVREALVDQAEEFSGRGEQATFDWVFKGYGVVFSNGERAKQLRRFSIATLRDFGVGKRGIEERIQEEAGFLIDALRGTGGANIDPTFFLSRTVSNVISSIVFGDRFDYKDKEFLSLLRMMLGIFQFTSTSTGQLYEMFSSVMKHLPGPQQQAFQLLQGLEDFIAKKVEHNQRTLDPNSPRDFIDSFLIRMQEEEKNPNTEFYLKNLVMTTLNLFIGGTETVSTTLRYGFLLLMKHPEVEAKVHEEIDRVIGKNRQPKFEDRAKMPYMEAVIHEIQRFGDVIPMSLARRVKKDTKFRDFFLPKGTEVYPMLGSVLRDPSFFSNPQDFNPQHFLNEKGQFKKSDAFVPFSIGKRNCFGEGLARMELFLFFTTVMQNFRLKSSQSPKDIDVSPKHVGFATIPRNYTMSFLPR

CYP2C9 [4] = target: T3, CYP2C9 (Homo sapiens, UniProt P11712); test: Metabolic stability in recombinant human CYP2C9 with NADPH; type: in vitro ADME; conditions: CYP2C9 share of CYP metabolism, scaled by abundance and ISEF
CYP2C19 [5] = target: T4, CYP2C19 (Homo sapiens, UniProt P33261); test: Metabolic stability in recombinant human CYP2C19 with NADPH; type: in vitro ADME; conditions: CYP2C19 share of CYP metabolism, scaled by abundance and ISEF
recombinant human CYP2E1 = recombinant human CYP2E1 (Homo sapiens, UniProt P05181); test: Metabolic stability in recombinant human CYP2E1 with NADPH; type: in vitro ADME; conditions: CYP2E1 share of CYP metabolism, scaled by abundance and ISEF
CYP3A4 [6] = target: T5, CYP3A4 (Homo sapiens, UniProt P08684); test: Metabolic stability in recombinant human CYP3A4 with NADPH; type: in vitro ADME; conditions: CYP3A4 share of CYP metabolism, scaled by abundance and ISEF
CYP3A4 [7] = target: T5, CYP3A4; test: CYP3A4 inhibition in human liver microsomes; type: in vitro ADME
[8] = Human plasma protein binding; type: in vitro ADME; conditions: human, human plasma
Human plasma protein = Human plasma protein binding; type: in vitro ADME; conditions: PBPK input
Blood‐to‐plasma ratio = type: in vitro ADME; conditions: PBPK input
PBPK model parameters = test: PBPK model parameters; set-up: species or system human
CYP1A2 [9] = target: T1, CYP1A2; conditions: main text summary
CYP2C9 [10] = target: T3, CYP2C9; conditions: main text summary
[11] = phase I FIH study ref 7; cited from earlier work
[12] = radiolabeled pomotrelvir ref 16; cited from earlier work
CYP2B6 = test: in vitro; conditions: human
CYP1A2 [13] = target: T1, CYP1A2; test: biochemical
CYP2C9 [14] = target: T3, CYP2C9; test: biochemical
CYP2C19 [15] = target: T4, CYP2C19; test: biochemical
[16] = Clinical DDI cohorts: pomotrelvir with ritonavir 100 mg
[17] = (20 mg PBI + 100 mg RTV, SD)/(100 mg POMO, SD)
[18] = (50 mg PBI + 100 mg RTV, Day1)/(100 mg POMO, SD)
[19] = (50 mg PBI + 100 mg RTV, Day5)/(100 mg POMO, SD), AUClast/Dose over AUCinf/Dose
[20] = (50 mg PBI + 100 mg RTV, Day10)/(100 mg POMO, SD), AUClast/Dose over AUCinf/Dose

T5 sequence (P08684 whole entry): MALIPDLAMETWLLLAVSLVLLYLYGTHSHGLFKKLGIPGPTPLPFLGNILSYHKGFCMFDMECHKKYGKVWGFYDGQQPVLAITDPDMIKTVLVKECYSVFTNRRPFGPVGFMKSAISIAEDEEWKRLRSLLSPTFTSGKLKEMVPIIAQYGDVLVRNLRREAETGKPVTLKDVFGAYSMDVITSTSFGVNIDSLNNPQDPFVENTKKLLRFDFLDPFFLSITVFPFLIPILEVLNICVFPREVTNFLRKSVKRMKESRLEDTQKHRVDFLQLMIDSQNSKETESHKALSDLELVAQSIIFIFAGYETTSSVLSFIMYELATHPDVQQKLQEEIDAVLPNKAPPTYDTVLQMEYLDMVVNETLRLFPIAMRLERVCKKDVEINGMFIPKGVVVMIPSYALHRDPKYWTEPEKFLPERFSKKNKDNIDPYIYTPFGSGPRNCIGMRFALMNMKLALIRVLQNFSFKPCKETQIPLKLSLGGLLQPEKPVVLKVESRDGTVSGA
T3 sequence (P11712 whole entry): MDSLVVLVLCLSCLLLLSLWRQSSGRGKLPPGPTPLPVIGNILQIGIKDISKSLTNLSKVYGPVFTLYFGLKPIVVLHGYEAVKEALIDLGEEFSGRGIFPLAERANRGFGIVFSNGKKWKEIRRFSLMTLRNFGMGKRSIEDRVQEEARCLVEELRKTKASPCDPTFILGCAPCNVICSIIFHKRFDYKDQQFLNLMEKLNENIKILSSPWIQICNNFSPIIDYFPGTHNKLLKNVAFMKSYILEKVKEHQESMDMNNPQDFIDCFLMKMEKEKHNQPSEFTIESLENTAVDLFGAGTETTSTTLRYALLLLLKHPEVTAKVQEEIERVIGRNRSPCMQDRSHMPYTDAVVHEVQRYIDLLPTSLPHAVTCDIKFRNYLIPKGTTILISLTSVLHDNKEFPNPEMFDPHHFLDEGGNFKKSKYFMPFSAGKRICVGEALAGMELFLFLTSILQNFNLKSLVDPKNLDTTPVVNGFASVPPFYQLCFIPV
T4 sequence (P33261 whole entry): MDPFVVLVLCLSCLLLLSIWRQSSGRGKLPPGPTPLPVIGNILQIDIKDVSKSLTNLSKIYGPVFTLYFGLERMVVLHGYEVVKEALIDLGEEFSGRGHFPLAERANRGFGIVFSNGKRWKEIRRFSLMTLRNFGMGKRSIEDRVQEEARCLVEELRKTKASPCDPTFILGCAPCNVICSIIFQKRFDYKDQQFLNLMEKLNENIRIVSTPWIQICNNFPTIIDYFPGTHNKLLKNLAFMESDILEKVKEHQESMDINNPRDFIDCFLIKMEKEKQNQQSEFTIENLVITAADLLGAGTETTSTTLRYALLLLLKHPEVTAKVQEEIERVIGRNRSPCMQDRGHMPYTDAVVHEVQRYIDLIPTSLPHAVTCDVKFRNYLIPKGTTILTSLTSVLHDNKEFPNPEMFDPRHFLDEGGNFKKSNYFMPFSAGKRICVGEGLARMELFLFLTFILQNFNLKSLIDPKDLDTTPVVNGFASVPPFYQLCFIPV
Chain of recombinant human CYP2E1 (P05181 whole entry): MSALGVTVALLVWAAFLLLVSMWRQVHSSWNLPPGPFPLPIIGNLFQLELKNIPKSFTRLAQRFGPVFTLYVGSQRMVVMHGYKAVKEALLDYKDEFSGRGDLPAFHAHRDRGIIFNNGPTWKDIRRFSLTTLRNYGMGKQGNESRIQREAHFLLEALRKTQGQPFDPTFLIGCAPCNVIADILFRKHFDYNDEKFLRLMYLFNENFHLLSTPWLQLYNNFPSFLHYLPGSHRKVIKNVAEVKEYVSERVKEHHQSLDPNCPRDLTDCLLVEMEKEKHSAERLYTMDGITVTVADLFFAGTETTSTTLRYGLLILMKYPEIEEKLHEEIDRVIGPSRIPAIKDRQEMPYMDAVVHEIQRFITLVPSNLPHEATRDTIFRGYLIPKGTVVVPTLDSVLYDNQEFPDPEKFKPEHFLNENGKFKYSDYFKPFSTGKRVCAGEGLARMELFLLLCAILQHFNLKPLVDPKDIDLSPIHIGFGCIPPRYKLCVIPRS

N#C[C@H](C[C@@H]1CCCNC1=O)NC(=O)[C@H](CC1CC1)NC(=O)c1cc2cccc(Cl)c2[nH]1 [Pomotrelvir, pomotrelvir]
efflux ratio [1]: large | Papp (BCRP): 1.01 ×10⁻⁶ cm/s | efflux ratio [2]: large | Relative Contribution (fm) (CYP1A2 [3]): negligible | Relative Contribution (fm) (recombinant human CYP2A6): negligible | Relative Contribution (fm) (CYP2C9 [4]): negligible | Relative Contribution (fm) (CYP2C19 [5]): negligible | Relative Contribution (fm) (recombinant human CYP2E1): negligible | Relative Contribution (fm) (CYP3A4 [6]): 88% | Ki (CYP3A4 [7]): 34.7 µM | inhibitory effect on CYP3A4 in vitro (in words) (CYP3A4 [7]; main text summary): time‐dependent inhibition (TDI) | fraction unbound [8]: 0.044 | Main binding protein (Human plasma protein): HSA | B:P (Blood‐to‐plasma ratio): 0.93 | fmCYP3A4 (PBPK model parameters; PBPK input, set to match the ritonavir DDI study): 0.25 | CYP3A4 CLint (unbound) (PBPK model parameters; retrograde model from CL/F): 0.376 µL/min/pmol | fmCYP3A4 (PBPK model parameters; value to match the ritonavir DDI study): 25% | inhibitory effect on CYP1A2 in vitro (in words) (CYP1A2 [9]): weak to moderate inhibition | inhibitory effect on CYP2C9 in vitro (in words) (CYP2C9 [10]): weak to moderate inhibition | contribution of nonhepatic, presystemic hydrolysis to apparent clearance (following oral dosing, thought to contribute): ~ 50% | CL/F (mean apparent oral clearance) (oral dose of 300 mg administered with food (FIH study)): 33.19 L/h | oral bioavailability [11]: good | tolerability [11]: well tolerated | major route of metabolism and clearance [12]: nonhepatic hydrolysis | urinary excretion of intact drug [12]: Minimal | EC50 at 72 h (CYP2B6): 4.84 µM | Ki (CYP1A2 [13]): 9.04 µM | Ki (CYP2C9 [14]): 12.3 µM | Ki (CYP2C19 [15]): 27.3 µM | change of dose‐normalized systemic exposure in the presence of ritonavir ([16]; 100 mg ritonavir, all cohorts and parameters): 0.92–1.54 fold | AUCinf/dose GMR (90% CI) [16, 17]: 0.92 (0.67, 1.26) | AUClast/dose GMR (90% CI) [16, 17]: 1.06 (0.68, 1.65) | Cmax/dose GMR (90% CI) [16, 17]: 0.97 (0.76, 1.22) | AUCinf/dose GMR (90% CI) [16, 18]: 1.54 (1.13, 2.1) | AUClast/dose GMR (90% CI) [16, 18]: 1.38 (1.08, 1.76) | Cmax/dose GMR (90% CI) [16, 18]: 1.46 (1.16, 1.84) | Cmax/dose GMR (90% CI) ([16]; (50 mg PBI + 100 mg RTV, Day5)/(100 mg POMO, SD)): 1.3 (0.9, 1.89) | AUCinf/dose GMR (90% CI) [16, 19]: 1.34 (0.96, 1.87) ^a | AUClast/dose GMR (90% CI) [16, 19]: 1.34 (0.96, 1.87) ^a | Cmax/dose GMR (90% CI) ([16]; (50 mg PBI + 100 mg RTV, Day10)/(100 mg POMO, SD)): 1.41 (1.05, 1.91) | AUCinf/dose GMR (90% CI) [16, 20]: 1.37 (1.05, 1.79) ^b | AUClast/dose GMR (90% CI) [16, 20]: 1.37 (1.05, 1.79) ^b | increase in exposure upon coadministration with ritonavir ([16]; single or multiple doses): < 50%
